2 compounds from publication PMC10137817, “Efficient Degradation for Raffinose and Stachyose of a β-D-Fructofuranosidase and Its New Function to Improve Gel Properties of Coagulated Fermented-Soymilk” (Gels, 2023) can be followed below.

The target in the experiment is T1, LcFFase1s (β-D-fructofuranosidase) (Leptothrix cholodnii, UniProt B1Y2A2).
T1 construct: gene Lcho_3297; codon-optimised synthetic gene in pET-28a(+) NdeI/XhoI, E. coli BL21(DE3), Ni-IDA purified (His tag implied, cleavage not mentioned)
T1 sequence (B1Y2A2 1-480): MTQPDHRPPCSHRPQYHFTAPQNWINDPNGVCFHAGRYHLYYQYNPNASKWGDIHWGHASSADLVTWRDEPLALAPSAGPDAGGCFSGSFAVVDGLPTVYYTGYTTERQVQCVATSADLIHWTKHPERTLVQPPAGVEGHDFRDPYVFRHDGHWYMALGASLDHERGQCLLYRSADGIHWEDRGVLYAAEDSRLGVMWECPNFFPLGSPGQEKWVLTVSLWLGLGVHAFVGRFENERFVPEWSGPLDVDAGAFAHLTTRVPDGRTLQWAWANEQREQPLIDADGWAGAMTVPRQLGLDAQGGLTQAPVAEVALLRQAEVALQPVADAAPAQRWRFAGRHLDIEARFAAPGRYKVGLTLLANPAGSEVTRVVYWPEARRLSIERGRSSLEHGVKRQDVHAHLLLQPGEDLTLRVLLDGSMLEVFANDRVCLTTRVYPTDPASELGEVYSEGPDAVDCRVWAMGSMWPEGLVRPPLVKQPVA
As to the kind of experiment: TLC of hydrolysis products. It counts as biochemical. As to conditions: 20 mg/mL substrate, 5 U/mL enzyme, 50 mM sodium hydrogen phosphate-citrate pH 6.5, 40 °C.

`OC[C@H]1O[C@H](OC[C@H]2O[C@H](OC[C@H]3O[C@H](O[C@]4(CO)O[C@H](CO)[C@@H](O)[C@@H]4O)[C@H](O)[C@@H](O)[C@@H]3O)[C@H](O)[C@@H](O)[C@H]2O)[C@H](O)[C@@H](O)[C@H]1O` [stachyose]: the “TLC of hydrolysis products” value was “LcFFase1s entirely hydrolyzed raffinose and stachyose into fructose and melibiose or raffinose”. As for `OC[C@H]1O[C@H](OC[C@H]2O[C@H](O[C@]3(CO)O[C@H](CO)[C@@H](O)[C@@H]3O)[C@H](O)[C@@H](O)[C@@H]2O)[C@H](O)[C@@H](O)[C@H]1O` [raffinose], the entry is “LcFFase1s entirely hydrolyzed raffinose and stachyose into fructose and melibiose or raffinose”.
